Results on 19 compounds are retold here after patent US20070213339A1 (Bayer Pharmaceuticals Corporation, priority 2004, published 2007).

The test system of the experiment is Colo205 human colon carcinoma cell line. The experiment in a line: In vitro tumor cell proliferation assay (MTS, CellTiter 96 Aqueous One Solution). Format: cell-based. As to conditions: COLO 205, Colo205 cells, 72 hours compound exposure, MTS absorbance at 490 nm, read-out: IC50 (concentration of test compound required to inhibit proliferation of 50% of the cells). The procedure, abridged: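 Proliferation measured as MTS tetrazolium reduction (490 nm) after 72 h compound exposure at 37 °C. Cells plated at 2000 per well in serum-supplemented RPMI-1640; duplicate 5-point dilutions topping out at 10-20 μM. Percent inhibition versus untreated and cell-free wells, IC50 derived by linear regression.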
As to `O=C(O)c1cn(-c2ccc(CNCC3CCCCC3)cc2)c2c(Cl)c(N3CCN(c4ncccn4)CC3)c(F)cc2c1=O` [Example 190, 8-chloro-1-{4-[(4-cyclohelmethyl-amino)-methyl]-phenyl}-6-fluoro-4-oxo-7-(4-pyrimidin-2-yl-piperazin-1-yl)-1,4-dihydroquinoline-3-carboxylic acid], the IC50 was in the range of 2000 to 20000 nM. The same measure for `CN(C)Cc1ccc(-n2cc(C(=O)O)c(=O)c3cc(F)c(N4CCN(c5ncccn5)CC4)c(OC(F)(F)F)c32)cc1` [Example 128, 1-{4-[(dimethylamino)methyl]phenyl}-6-fluoro-4-oxo-7-(4-pyrimidin-2-ylpiperazin-1-yl)-8-(trifluoromethoxy)-1,4-dihydroquinoline-3-carboxylic acid]: under 500 nM. `O=C(O)c1cn(-c2ccc(CN3CCCC3)nc2)c2c(Cl)c(N3CCN(c4ccc(Cl)cc4)CC3)c(F)cc2c1=O` [Example 38, 8-chloro-7-[4-(4-chlorophenyl)piperazin-1-yl]-6-fluoro-4-oxo-1-[6-(pyrrolidin-1-ylmethyl)pyridin-3-yl]-1,4-dihydroquinoline-3-carboxylic acid]: the IC50 was under 500 nM. For `O=C(O)c1cn(-c2ccc(CN3CCCC3)cc2F)c2c(Cl)c(N3CCN(c4ccccn4)CC3)c(F)cc2c1=O` [Example 46, 8-chloro-6-fluoro-1-[2-fluoro-4-(pyrrolidin-1-ylmethyl)phenyl]-4-oxo-7-(4-pyridin-2-ylpiperazin-1-yl)-1,4-dihydroquinoline-3-carboxylic acid] the value was 500 to 2000 nM; for `N#Cc1cccnc1N1CCN(c2c(F)cc3c(=O)c(C(=O)O)cn(-c4ccc(CN5CCCC5)cc4)c3c2Cl)CC1` [Example 7, 8-chloro-7-[4-(3-cyanopyridin-2-yl)piperazin-1-yl]-6-fluoro-4-oxo-1-[4-(pyrrolidin-1-ylmethyl)phenyl]-1,4-dihydroquinoline-3-carboxylic acid], under 500 nM; for `CN(Cc1ccc(-n2cc(C(=O)O)c(=O)c3cc(F)c(N4CCN(c5ccccn5)CC4)c(Cl)c32)cc1)C1CCCCC1` [Example 61, 8-chloro-1-(4-{[cyclohexyl(methyl)amino]-methyl}phenyl)-6-fluoro-4-oxo-7-(4-pyridin-2-ylpiperazin-1-yl)-1,4-dihydroquinoline-3-carboxylic acid], under 500 nM. On to `COc1c(N2CCN(c3ccc(C#N)cc3)CC2)c(F)cc2c(=O)c(C(=O)O)cn(-c3ccc(CN(C)C)cc3)c12` [Example 102, 7-[4-(4-cyanophenyl)piperazin-1-yl]-1-{4-[(dimethylamino)methyl]phenyl}-6-fluoro-8-methoxy-4-oxo-1,4-dihydroquinoline-3-carboxylic acid], for which the IC50 is under 500 nM. For `COc1cc(CN2CCCC2)ccc1-n1cc(C(=O)O)c(=O)c2cc(F)c(N3CCN(c4ccc(F)cc4)CC3)c(Cl)c21` [Example 176, 8-chloro-6-fluoro-7-[4-(4-fluorophenyl)-piperazine-1-yl]-1-(2-methoxy-4-pyrrolidin-1-ylmethyl-phenyl)-4-oxo-1,4-dihydroquinoline-3-carboxylic acid] the value was under 500 nM; for `CCN(C)Cc1ccc(-n2cc(C(=O)O)c(=O)c3cc(F)c(N4CCN(c5ncccc5C#N)CC4)c(OC(F)(F)Cl)c32)cc1` [Example 166, 8-[chloro(difluoro)methoxy]-7-[4-(3-cyanopyridin-2-yl)piperazin-1-yl]-1-(4-{[ethyl(methyl)amino]methyl}phenyl)-6-fluoro-4-oxo-1,4-dihydroquinoline-3-carboxylic acid], under 500 nM; for `COC[C@H]1CCCN1Cc1ccc(-n2cc(C(=O)O)c(=O)c3cc(F)c(N4CCN(c5ccccn5)CC4)c(Cl)c32)cc1` [Example 21, 8-chloro-6-fluoro-1-(4-{[(2R)-2-(methoxy-methyl)pyrrolidin-1-yl]methyl}phenyl)-4-oxo-7-(4-pyridin-2-ylpiperazin-1-yl)-1,4-dihydroquinoline-3-carboxylic acid], under 500 nM. For `COc1c(N2CCN(c3ncccn3)CC2)c(F)cc2c(=O)c(C(=O)O)cn(-c3ccc(CN4CCCCC4)cc3)c12` [Example 193, 6-fluoro-8-methoxy-4-oxo-1-(4-piperidin-1-ylmethyl-phenyl)-7-(4-pyrimidine-2-yl-piperazine-1-yl]-1,4-dihydroquinoline-3-carboxylic acid], the IC50 is under 500 nM. As to `COc1c(N2CCN(c3ccc(F)cc3F)CC2)c(F)cc2c(=O)c(C(=O)O)cn(-c3ccc(CN4CCCC4)cc3)c12` [Example 76, 7-[4-(2,4-difluorophenyl)piperazin-1-yl]-6-fluoro-8-methoxy-4-oxo-1-[4-(pyrrolidin-1-ylmethyl)phenyl]-1,4-dihydroquinoline-3-carboxylic acid], the IC50 lay within 500 to 2000 nM. For `CC1CCCN1Cc1ccc(-n2cc(C(=O)O)c(=O)c3cc(F)c(N4CCN(c5ccc(F)cc5)CC4)c(Cl)c32)cc1` (stereo not shown) [Example 18, 8-chloro-6-fluoro-7-[4-(4-fluorophenyl)-piperazin-1-yl]-1-{4-[(2-methylpyrrolidin-1-yl)methyl]phenyl}-4-oxo-1,4-dihydroquinoline-3-carboxylic acid] the value was under 500 nM; for `O=C(O)c1cn(-c2cccc(CN3CCCCC3)c2)c2c(Cl)c(N3CCN(c4cccc(Cl)c4)CC3)c(F)cc2c1=O` [Example 68, 8-chloro-7-[4-(3-chlorophenyl)piperazin-1-yl]-6-fluoro-4-oxo-1-[3-(piperidin-1-ylmethyl)phenyl]-1,4-dihydroquinoline-3-carboxylic acid], 2000 to 20000 nM; for `N#Cc1ccccc1N1CCN(c2c(F)cc3c(=O)c(C(=O)O)cn(-c4ccc(CN5CCCC5)c(F)c4)c3c2Cl)CC1` [Example 185, 8-chloro-7-[4-(2-cyanophenyl)-piperazine-1-yl]-6-fluoro-1-(3-fluoro-4-pyrrolidin-1-ylmethyl-phenyl)-4-oxo-1,4-dihydroquinoline-3-carboxylic acid], under 500 nM. For `O=C(O)c1cn(-c2ccc(CNC3CCCCC3)cc2)c2c(Cl)c(N3CCN(c4ccccn4)CC3)c(F)cc2c1=O` [Example 171, 8-chloro-1-(4-cyclohexylaminomethyl-phenyl)-6-fluoro-4-oxo-7-(4-pyridin-2-yl-piperazin-1-yl)-1,4-dihydroquinoline-3-carboxylic acid] the value was under 500 nM; for `Cc1ccc(N2CCN(c3c(F)cc4c(=O)c(C(=O)O)cn(-c5ccc(CN6CCCC6)cc5)c4c3OC(F)(F)Cl)CC2)c(C)c1` [Example 150, 8-[chloro(difluoro)methoxy]-7-[4-(2,4-dimethylphenyl)piperazin-1-yl]-6-fluoro-4-oxo-1-[4-(pyrrolidin-1-ylmethyl)phenyl]-1,4-dihydroquinoline-3-carboxylic acid], 500 to 2000 nM.

`CCN(CC)Cc1ccc(-n2cc(C(=O)O)c(=O)c3cc(F)c(N4CCN(c5ncccn5)CC4)c(OC)c32)cc1` [Example 106, 1-{4-[(diethylamino)methyl]phenyl}-6-fluoro-8-methoxy-4-oxo-7-(4-pyrimidin-2-ylpiperazin-1-yl)-1,4-dihydroquinoline-3-carboxylic acid]: the IC50 is under 500 nM.

`CCOc1ccccc1N1CCN(c2c(F)cc3c(=O)c(C(=O)O)cn(-c4ccc(CN5CCCC5)cc4)c3c2Cl)CC1` [Example 16, 8-chloro-7-[4-(2-ethoxyphenyl)piperazin-1-yl]-6-fluoro-4-oxo-1-[4-(pyrrolidin-1-ylmethyl)phenyl]-1,4-dihydroquinoline-3-carboxylic acid]: the IC50 lay within 500 to 2000 nM.
